Several values for one entry are separate records, joined by “and”; a condition that tells them apart may be missing. Identical values can stand only once. Inconclusive results and toxic doses are left out. Cut-off read from the data, not from the text of the source: active = T/C of 150% or more; inactive = T/C below 125%.
Tested on: L1210 leukemia ip in BDF1 mice, survival T/C
Test: NCI In Vivo Anticancer Drug Screen. Data for tumor model L1210 Leukemia (intraperitoneal) in B6D2F1 (BDF1) mice
Conditions: endpoint: mean survival time, higher = longer survival
Method in brief: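 Mice bearing the transplanted tumor received compound or vehicle. Survival of the treated group was divided by that of the vehicle-treated control group to give the ratio.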

[1] = dose: 100.0 mg/kg/injection, schedule: Q01DX001 (ip), vehicle: carboxymethylcellulose (CMC)
[2] = dose: 200.0 mg/kg/injection, schedule: Q01DX001 (ip), vehicle: carboxymethylcellulose (CMC)
[3] = dose: 400.0 mg/kg/injection, schedule: Q01DX001 (ip), vehicle: carboxymethylcellulose (CMC)
[4] = dose: 100.0 mg/kg/injection, schedule: Q01DX001 (ip), vehicle: saline
[5] = dose: 200.0 mg/kg/injection, schedule: Q01DX001 (ip), vehicle: saline
[6] = dose: 400.0 mg/kg/injection, schedule: Q01DX001 (ip), vehicle: saline
[7] = dose: 100.0 mg/kg/injection, schedule: Q01DX009 (ip), vehicle: saline with Tween-80
[8] = dose: 100.0 mg/kg/injection, schedule: Q04DX003 (ip), vehicle: saline with Tween-80
[9] = dose: 200.0 mg/kg/injection, schedule: Q01DX009 (ip), vehicle: saline with Tween-80
[10] = dose: 200.0 mg/kg/injection, schedule: Q04DX003 (ip), vehicle: saline with Tween-80
[11] = dose: 400.0 mg/kg/injection, schedule: Q04DX003 (ip), vehicle: saline with Tween-80

Measured: T/C

O=c1[nH]c2ccccc2[nH]1
inactive: dose: 12.5 mg/kg/injection, schedule: Q04DX002 (ip), vehicle: Klucel (hydroxypropylcellulose) (HPC) 90 % of control | dose: 25.0 mg/kg/injection, schedule: Q04DX002 (ip), vehicle: Klucel (hydroxypropylcellulose) (HPC) 87 % of control | dose: 50.0 mg/kg/injection, schedule: Q01DX009 (ip), vehicle: Klucel (hydroxypropylcellulose) (HPC) 95 % of control | dose: 50.0 mg/kg/injection, schedule: Q04DX002 (ip), vehicle: Klucel (hydroxypropylcellulose) (HPC) 90 % of control | dose: 75.0 mg/kg/injection, schedule: Q01DX009 (ip), vehicle: Klucel (hydroxypropylcellulose) (HPC) 94 % of control | dose: 115.0 mg/kg/injection, schedule: Q01DX009 (ip), vehicle: Klucel (hydroxypropylcellulose) (HPC) 97 % of control | dose: 170.0 mg/kg/injection, schedule: Q01DX009 (ip), vehicle: Klucel (hydroxypropylcellulose) (HPC) 89 % of control

C(Cc1ccccc1)=C(CCc1ccccc1)CCc1ccccc1
inactive: dose: 100.0 mg/kg/injection, schedule: Q01DX001 (ip), vehicle: saline with Tween-80 104 % of control | dose: 200.0 mg/kg/injection, schedule: Q01DX001 (ip), vehicle: saline with Tween-80 93 % of control | dose: 400.0 mg/kg/injection, schedule: Q01DX001 (ip), vehicle: saline with Tween-80 93 % of control

O=C1OC(c2ccccc2)=N/C1=C\c1ccccc1Cl
inactive: dose: 100.0 mg/kg/injection, schedule: Q04DX002 (ip), vehicle: saline with Tween-80 87 % of control | dose: 200.0 mg/kg/injection, schedule: Q04DX002 (ip), vehicle: saline with Tween-80 94 % of control

O=C1C(c2ccccc2)=C(N2CCCCC2)C(=O)C(c2ccccc2)=C1N1CCCCC1
inactive: [1] 90 % of control | [2] 90 % of control | [3] 94 % of control

Cc1ccc(S(=O)(=O)NNC(=O)c2ccc(-c3ccc[nH]3)[nH]2)cc1
inactive: dose: 75.0 mg/kg/injection, schedule: Q01DX001 (ip), vehicle: saline 93 % of control | dose: 150.0 mg/kg/injection, schedule: Q01DX001 (ip), vehicle: saline 92 % of control | dose: 300.0 mg/kg/injection, schedule: Q01DX001 (ip), vehicle: saline 98 % of control

O=c1cc(O)c2c(O)cc(O)cc2o1
inactive: [4] 96 % of control | [5] 96 % of control | [6] 88 % of control

CN=C(N)NN
inactive: dose: 30.0 mg/kg/injection, schedule: Q01DX Z (ip), vehicle: methylcellulose (MC) 102 % of control | dose: 60.0 mg/kg/injection, schedule: Q01DX Z (ip), vehicle: methylcellulose (MC) 97 % of control | dose: 120.0 mg/kg/injection, schedule: Q01DX Z (ip), vehicle: methylcellulose (MC) 105 % of control | dose: 175.0 mg/kg/injection, schedule: Q01DX001 (ip), vehicle: saline 105 % of control | dose: 240.0 mg/kg/injection, schedule: Q01DX Z (ip), vehicle: methylcellulose (MC) 98 % of control | dose: 265.0 mg/kg/injection, schedule: Q01DX001 (ip), vehicle: saline 104 % of control | dose: 375.0 mg/kg/injection, schedule: Q01DX Z (ip), vehicle: methylcellulose (MC) 111 % of control | [6] 98 % of control | dose: 480.0 mg/kg/injection, schedule: Q01DX Z (ip), vehicle: methylcellulose (MC) 107 % of control | dose: 600.0 mg/kg/injection, schedule: Q01DX001 (ip), vehicle: saline 104 % of control

CC(Cl)CN(Cc1cc(O)c(CN(CC(C)Cl)CC(C)Cl)cc1O)CC(C)Cl (stereo not given)
inactive: dose: 50.0 mg/kg/injection, schedule: Q01DX001 (ip), vehicle: carboxymethylcellulose (CMC) 105 % of control | [1] 94 % of control | [2] 95 % of control | [3] 90 % of control

CCSC1C(O)C(CO)OC1n1ccc(=O)[nH]c1=O (stereo not given)
inactive: dose: 100.0 mg/kg/injection, schedule: Q01DX005 (ip), vehicle: saline 92 % of control | dose: 200.0 mg/kg/injection, schedule: Q01DX005 (ip), vehicle: saline 101 % of control

N/C(=N/O)c1cn(C2OC(CO)C(O)C2O)c2ncnc(NO)c12 (stereo not given)
inactive: dose: 12.5 mg/kg/injection, schedule: Q01DX009 (ip), vehicle: saline 121 % of control | dose: 25.0 mg/kg/injection, schedule: Q01DX009 (ip), vehicle: saline 86 % of control

COc1ccccc1N=Nc1c(O)[nH]c2ccccc12
inactive: [4] 96 % of control | [5] 96 % of control | [6] 102 % of control

Cc1n(C(C)C)c2c([n+]1C)C(=O)c1ccccc1C2=O
inactive: dose: 0.39 mg/kg/injection, schedule: Q01DX009 (ip), vehicle: saline 106 % of control | dose: 0.78 mg/kg/injection, schedule: Q01DX009 (ip), vehicle: saline 98 % of control | dose: 1.56 mg/kg/injection, schedule: Q01DX009 (ip), vehicle: saline 101 % of control | dose: 1.56 mg/kg/injection, schedule: Q04DX003 (ip), vehicle: acetone 95 % of control | dose: 2.33 mg/kg/injection, schedule: Q01DX009 (ip), vehicle: acetone 88 % of control | dose: 3.54 mg/kg/injection, schedule: Q01DX009 (ip), vehicle: acetone 92 % of control

CCC(=O)N1CCOCC1
inactive: dose: 100.0 mg/kg/injection, schedule: Q04DX003 (ip), vehicle: saline 102 % of control | dose: 200.0 mg/kg/injection, schedule: Q04DX003 (ip), vehicle: saline 105 % of control | dose: 400.0 mg/kg/injection, schedule: Q04DX003 (ip), vehicle: saline 98 % of control

Cc1ccc(S(=O)(=O)OC2CC(C(=O)O)N(S(=O)(=O)c3ccc(C)cc3)C2)cc1 (stereo not given)
inactive: [7] 104 % of control | [8] 98 % of control and 92 % of control | [9] 95 % of control | [10] 97 % of control and 101 % of control | [11] 96 % of control and 107 % of control

CCOC(=O)c1c(Cl)c(Cl)c(Cl)c(Cl)c1C(=O)OCC
inactive: dose: 100.0 mg/kg/injection, schedule: Q01DX009 (ip), vehicle: Klucel (hydroxypropylcellulose) (HPC) 105 % of control | [7] 101 % of control | dose: 100.0 mg/kg/injection, schedule: Q04DX003 (ip), vehicle: Klucel (hydroxypropylcellulose) (HPC) 90 % of control | [8] 100 % of control | dose: 200.0 mg/kg/injection, schedule: Q01DX009 (ip), vehicle: Klucel (hydroxypropylcellulose) (HPC) 104 % of control | [9] 90 % of control | dose: 200.0 mg/kg/injection, schedule: Q04DX003 (ip), vehicle: Klucel (hydroxypropylcellulose) (HPC) 95 % of control | [10] 104 % of control | dose: 400.0 mg/kg/injection, schedule: Q01DX009 (ip), vehicle: Klucel (hydroxypropylcellulose) (HPC) 100 % of control | dose: 400.0 mg/kg/injection, schedule: Q01DX009 (ip), vehicle: saline with Tween-80 93 % of control | dose: 400.0 mg/kg/injection, schedule: Q04DX003 (ip), vehicle: Klucel (hydroxypropylcellulose) (HPC) 105 % of control | [11] 102 % of control

Nc1nc(N)nc(COc2ccccc2Cl)n1
inactive: dose: 100.0 mg/kg/injection, schedule: Q04DX002 (ip), vehicle: Klucel (hydroxypropylcellulose) (HPC) 119 % of control | dose: 200.0 mg/kg/injection, schedule: Q04DX002 (ip), vehicle: Klucel (hydroxypropylcellulose) (HPC) 90 % of control

Reference: PubChem BioAssay AID248 (DTP/NCI, 2004)
